Organism: Rattus norvegicus
Experiment: DrugMatrix - Regimen: Daily Repeat
Format: toxicity, organism-based, Sprague-Dawley
Parameters: regimen Daily Repeat, gender Male, age 6-8 weeks
Details: in vivo, po, route oral GAVAGE, vehicle .5 % CMC; for URIC ACID / ALANINE AMINOTRANSFERASE / ALBUMIN / ALKALINE PHOSPHATASE / ASPARTATE AMINOTRANSFERASE / BLOOD UREA NITROGEN / CARBON DIOXIDE / CHLORIDE / CHOLESTEROL / CREATINE PHOSPHOKINASE / CREATININE / GLUCOSE / LACTATE DEHYDROGENASE / LIPASE / PHOSPHORUS / POTASSIUM / SODIUM / TOTAL BILIRUBIN / TOTAL PROTEIN: tissue Plasma; for ABSOLUTE BASOPHIL / ABSOLUTE EOSINOPHIL / ABSOLUTE LYMPHOCYTE / ABSOLUTE MONOCYTE / ABSOLUTE SEGMENTED NEUTROPHIL / BASOPHIL / EOSINOPHIL / ERYTHROCYTE COUNT / HEMATOCRIT / HEMOGLOBIN / LEUKOCYTE COUNT / LYMPHOCYTE / MEAN CORPUSCULAR HEMOGLOBIN / MEAN CORPUSCULAR HEMOGLOBIN CONCENTRATION / MEAN CORPUSCULAR VOLUME / MONOCYTE / NEUTROPHIL / NUCLEATED RED BLOOD CELLS / PLATELET COUNT: tissue Blood
[1] = 250 mg/kg, 120 h, dose level High, time 5 day
[2] = […], 72 h, dose 0.25 mg/Kg, dose level Low, time 3 day
[3] = […], 120 h, dose 0.25 mg/Kg, dose level Low, time 5 day

C#C[C@]1(O)CC[C@H]2[C@@H]3CCc4cc(OC)ccc4[C@H]3CC[C@@]21C [MESTRANOL]
URIC ACID (250 mg/kg, 72 h, dose level High, time 3 day): 1.23 mg/dL | ABSOLUTE BASOPHIL [1]: 0 CELLS/uL | ABSOLUTE EOSINOPHIL [1]: 0 CELLS/uL | ABSOLUTE LYMPHOCYTE [1]: 11929 CELLS/uL | ABSOLUTE MONOCYTE [1]: 0 CELLS/uL | ABSOLUTE SEGMENTED NEUTROPHIL [1]: 1137.67 CELLS/uL | BASOPHIL [1]: 0% | EOSINOPHIL [1]: 0% | ERYTHROCYTE COUNT [1]: 6.07 x10E6/uL | HEMATOCRIT [1]: 37.27% | HEMOGLOBIN [1]: 14.37 G/DL | LEUKOCYTE COUNT [1]: 13.07 x10E3/uL | LYMPHOCYTE [1]: 91.33% | MEAN CORPUSCULAR HEMOGLOBIN [1]: 23.67 pg | MEAN CORPUSCULAR HEMOGLOBIN CONCENTRATION [1]: 38.53 G/DL | MEAN CORPUSCULAR VOLUME [1]: 61.37 fL | MONOCYTE [1]: 0% | NEUTROPHIL [1]: 8.67% | NUCLEATED RED BLOOD CELLS [1]: 0 /100WBC | PLATELET COUNT [1]: 1600 x10E3/uL | ALANINE AMINOTRANSFERASE [1]: 72.67 u/L | ALBUMIN [1]: 4.13 G/DL | ALKALINE PHOSPHATASE [1]: 667.33 u/L | ASPARTATE AMINOTRANSFERASE [1]: 77.67 u/L | BLOOD UREA NITROGEN [1]: 14.67 mg/dL | CARBON DIOXIDE [1]: 23.67 mmol/L | CHLORIDE [1]: 102 MEQ/L | CHOLESTEROL [1]: 4.67 mg/dL | CREATINE PHOSPHOKINASE [1]: 223.67 u/L | CREATININE [1]: 0.14 mg/dL | GLUCOSE [1]: 117 mg/dL | LACTATE DEHYDROGENASE [1]: 394.67 u/L | LIPASE [1]: 7.33 u/L | PHOSPHORUS [1]: 10.63 mg/dL | POTASSIUM [1]: 6.65 MEQ/L | SODIUM [1]: 145.1 MEQ/L | TOTAL BILIRUBIN [1]: 0.13 mg/dL | URIC ACID [1]: 1.63 mg/dL | ABSOLUTE BASOPHIL [2]: 0 CELLS/uL | ABSOLUTE EOSINOPHIL [2]: 68.33 CELLS/uL | ABSOLUTE LYMPHOCYTE [2]: 15182.67 CELLS/uL | ABSOLUTE MONOCYTE [2]: 0 CELLS/uL | ABSOLUTE SEGMENTED NEUTROPHIL [2]: 1349 CELLS/uL | BASOPHIL [2]: 0% | EOSINOPHIL [2]: 0.33% | ERYTHROCYTE COUNT [2]: 5.73 x10E6/uL | HEMATOCRIT [2]: 36.73% | HEMOGLOBIN [2]: 14.03 G/DL | LEUKOCYTE COUNT [2]: 16.6 x10E3/uL | LYMPHOCYTE [2]: 91.67% | MEAN CORPUSCULAR HEMOGLOBIN [2]: 24.5 pg | MEAN CORPUSCULAR HEMOGLOBIN CONCENTRATION [2]: 38.17 G/DL | MEAN CORPUSCULAR VOLUME [2]: 64.17 fL | MONOCYTE [2]: 0% | NEUTROPHIL [2]: 8% | NUCLEATED RED BLOOD CELLS [2]: 0 /100WBC | PLATELET COUNT [2]: 1226 x10E3/uL | ALANINE AMINOTRANSFERASE [2]: 51.33 u/L | ALBUMIN [2]: 4.37 G/DL | ALKALINE PHOSPHATASE [2]: 522.67 u/L | ASPARTATE AMINOTRANSFERASE [2]: 83.67 u/L | BLOOD UREA NITROGEN [2]: 12.67 mg/dL | CARBON DIOXIDE [2]: 28 mmol/L | CHLORIDE [2]: 101.67 MEQ/L | CHOLESTEROL [2]: 36 mg/dL | CREATINE PHOSPHOKINASE [2]: 348.33 u/L | CREATININE [2]: 0.27 mg/dL | GLUCOSE [2]: 135.67 mg/dL | LACTATE DEHYDROGENASE [2]: 453.33 u/L | LIPASE [2]: 7.67 u/L | PHOSPHORUS [2]: 11.2 mg/dL | POTASSIUM [2]: 6.61 MEQ/L | SODIUM [2]: 145.07 MEQ/L | TOTAL BILIRUBIN [2]: 0.23 mg/dL | TOTAL PROTEIN [2]: 6.23 G/DL | URIC ACID [2]: 1.33 mg/dL | ABSOLUTE BASOPHIL [3]: 0 CELLS/uL | ABSOLUTE EOSINOPHIL [3]: 139.33 CELLS/uL | ABSOLUTE LYMPHOCYTE [3]: 14510.33 CELLS/uL | ABSOLUTE MONOCYTE [3]: 98 CELLS/uL | ABSOLUTE SEGMENTED NEUTROPHIL [3]: 652.33 CELLS/uL | BASOPHIL [3]: 0% | EOSINOPHIL [3]: 1% | ERYTHROCYTE COUNT [3]: 5.62 x10E6/uL | HEMATOCRIT [3]: 35.57% | HEMOGLOBIN [3]: 14.03 G/DL | LEUKOCYTE COUNT [3]: 15.4 x10E3/uL | LYMPHOCYTE [3]: 94.33% | MEAN CORPUSCULAR HEMOGLOBIN [3]: 25.13 pg | MEAN CORPUSCULAR HEMOGLOBIN CONCENTRATION [3]: 39.5 G/DL | MEAN CORPUSCULAR VOLUME [3]: 63.6 fL | MONOCYTE [3]: 0.67% | NEUTROPHIL [3]: 4% | NUCLEATED RED BLOOD CELLS [3]: 0 /100WBC | PLATELET COUNT [3]: 1110.33 x10E3/uL | ALANINE AMINOTRANSFERASE [3]: 49.33 u/L | ALBUMIN [3]: 3.97 G/DL | ALKALINE PHOSPHATASE [3]: 553.33 u/L | ASPARTATE AMINOTRANSFERASE [3]: 70.67 u/L | BLOOD UREA NITROGEN [3]: 19.33 mg/dL | CARBON DIOXIDE [3]: 26.67 mmol/L | CHLORIDE [3]: 102.67 MEQ/L | CHOLESTEROL [3]: 31.33 mg/dL | CREATINE PHOSPHOKINASE [3]: 297.67 u/L | CREATININE [3]: 0.26 mg/dL | GLUCOSE [3]: 141.33 mg/dL | LACTATE DEHYDROGENASE [3]: 123.67 u/L | LIPASE [3]: 7.33 u/L | PHOSPHORUS [3]: 11.23 mg/dL | POTASSIUM [3]: 6.54 MEQ/L | SODIUM [3]: 144.33 MEQ/L | TOTAL BILIRUBIN [3]: 0.27 mg/dL | TOTAL PROTEIN [3]: 6 G/DL | URIC ACID [3]: 1.13 mg/dL
